Measurements reported in patent US9453062B2, “Glucose dependent insulinotropic polypeptide analogs, pharmaceutical compositions and use thereof” (Beijing Hanmi Pharmaceutical Co., Ltd., priority 2011, dated 2016).
Where a SMILES comes first, the peptide text is derived from it. Bridges are numbered along the chain shown (N, C = ends). [ ]: non-standard residue; d: D form. The star is where a group is joined. Palmitoyl = CCCCCCCCCCCCCCCC(=O)*; Aib = CC(C)(N)C(=O)O

Tests used:
hGLP-1R = biological target: T1, hGLP-1R (Homo sapiens, UniProt P43220); assay: hGLP-1R-mediated cAMP induction assay in CHO cell line; type: cell-based; details: Table 3; for EC50: CHO hGLP1R cells; for GLP-1 Receptor Relative Potency: against native GLP-1;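 for all read-outs here: CHO cells expressing human GLP-1R, treated 30 min at 37 °C, intracellular cAMP measured by competitive fluorescent immunoassay and converted via a cAMP standard curve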
T1 construct: expressed in transfected cells; host or cells: CHO
T1 sequence (P43220 24-463): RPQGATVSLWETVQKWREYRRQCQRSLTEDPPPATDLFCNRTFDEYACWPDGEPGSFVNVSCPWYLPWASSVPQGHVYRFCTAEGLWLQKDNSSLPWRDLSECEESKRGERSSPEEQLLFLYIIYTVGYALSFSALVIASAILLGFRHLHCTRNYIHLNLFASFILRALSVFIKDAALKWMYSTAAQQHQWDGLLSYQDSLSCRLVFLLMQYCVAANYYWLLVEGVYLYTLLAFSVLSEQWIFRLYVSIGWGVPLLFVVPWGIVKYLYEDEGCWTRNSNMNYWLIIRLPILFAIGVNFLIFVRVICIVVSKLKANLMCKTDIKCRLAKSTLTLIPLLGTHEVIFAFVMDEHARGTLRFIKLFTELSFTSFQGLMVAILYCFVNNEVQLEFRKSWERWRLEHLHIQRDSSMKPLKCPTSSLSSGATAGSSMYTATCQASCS

hGIPR = biological target: T2, hGIPR (Homo sapiens, UniProt P48546); assay: hGIPR-mediated cAMP induction assay in CHO cell line; type: cell-based; details: Table 3; for EC50: CHO hGIPR cells; for GIP Receptor Relative Potency: against native GIP
T2 construct: expressed in transfected cells; host or cells: CHO
T2 sequence (P48546 22-466): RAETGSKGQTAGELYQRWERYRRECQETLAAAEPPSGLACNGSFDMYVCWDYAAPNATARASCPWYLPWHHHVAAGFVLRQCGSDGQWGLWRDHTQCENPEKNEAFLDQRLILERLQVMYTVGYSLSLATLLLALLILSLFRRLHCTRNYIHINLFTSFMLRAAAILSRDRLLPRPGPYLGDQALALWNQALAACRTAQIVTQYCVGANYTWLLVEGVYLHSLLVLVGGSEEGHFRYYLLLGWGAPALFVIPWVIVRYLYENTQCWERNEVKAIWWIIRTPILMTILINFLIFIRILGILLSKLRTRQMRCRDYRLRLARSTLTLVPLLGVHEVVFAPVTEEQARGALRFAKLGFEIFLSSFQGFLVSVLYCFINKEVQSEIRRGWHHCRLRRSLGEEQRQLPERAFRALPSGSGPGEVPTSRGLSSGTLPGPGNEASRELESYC
Source text: The cAMP in the sample or standard competes with horseradish peroxidase (HRP)-labeled cAMP conjugate for binding sites on the anti-cAMP antibodies. In the absence of cAMP, most of the HRP-cAMP conjugate is bound to the antibody. Increasing concentrations of cAMP competitively decrease the amount of bound conjugate, thus decreasing measured HRP activity.
Assay kit: CatchPoint™ Cyclic-AMP Fluorescent Assay Kit (Molecular Devices, Product # R8088)
Cell lines: CHO hGLP1R, CHO hGIPR
Cell seeding: CHO hGLP1R or CHO hGIPR cells: 10,000 cells/well/100 uL at 37° C. 5% CO2 overnight.
Gently aspirate off media and wash the cells with KRBG Buffer, 100 uL/well.
Incubate the plate for 10 min at room temperature. Then add the KRBG buffer with 3× final concentration of the tested samples (5-foled series diluted from 5,000 nM), 50 uL/well. Incubate the plate at 37° C. 5% CO2 for 30 min.
Add 50 uL of Lysis buffer to each well and put the plate on a shaker for 10 min.
Place 40 uL of samples and analyze in appropriate wells. And test the cAMP concentration in each sample by following the manufacture's instruction.
Detect the fluorescence signal at Ex: 490 nm and Em: 530 nm. Transfer the FI signal to cAMP concentration by the cAMP standard curve. The Dose-response curve and EC50 were obtained by logistic fitting of Origin 8.

Compound | EC50 (hGLP-1R) | GLP-1 Receptor Relative Potency (hGLP-1R) | EC50 (hGIPR) | GIP Receptor Relative Potency (hGIPR)
CC[C@H](C)[C@H](NC(=O)[C@H](Cc1ccccc1)NC(=O)[C@H](CCC(=O)O)NC(=O)[C@H](CCCNC(=N)N)NC(=O)[C@@H](NC(=O)[C@H](C)NC(=O)[C@H](CCC(=O)O)NC(=O)[C@@H]1CCCCNC(=O)CC[C@H](NC(=O)[C@H](CO)NC(=O)[C@H](Cc2ccc(O)cc2)NC(=O)[C@H](CC(=O)O)NC(=O)[C@H](CO)NC(=O)[C@@H](NC(=O)[C@H](Cc2ccccc2)NC(=O)[C@@H](NC(=O)CNC(=O)[C@H](CCC(=O)O)NC(=O)C(C)(C)NC(=O)[C@@H](N)Cc2ccc(O)cc2)[C@@H](C)O)[C@@H](C)O)C(=O)N[C@@H](Cc2ccc(O)cc2)C(=O)N[C@@H](CCSC)C(=O)N[C@@H](CCC(=O)O)C(=O)N1)C(C)C)C(=O)N[C@@H](C)C(=O)N[C@@H](Cc1c[nH]c2ccccc12)C(=O)N[C@@H](CC(C)C)C(=O)N[C@H](C(=O)N[C@@H](CCCCN)C(=O)NCC(=O)NCC(=O)N1CCC[C@H]1C(=O)N[C@@H](CO)C(=O)N[C@@H](CO)C(=O)NCC(=O)N[C@@H](C)C(=O)N1CCC[C@H]1C(=O)N1CCC[C@H]1C(=O)N1CCC[C@H]1C(=O)N[C@@H](CO)C(N)=O)C(C)C [Compound 081] (H-Y[Aib]EGTFTSDYSEYMEKEAVREFIAWLVKGGPSSGAPPPS-NH2; lactam 12-16) | 0.77 nM | 124.3 | 0.044 nM | 250
CCCCCCCCCCCCCCCC(=O)NCCCC[C@H](NC(=O)CNC(=O)[C@H](CCCCN)NC(=O)[C@@H](NC(=O)[C@H](CC(C)C)NC(=O)[C@H](Cc1c[nH]c2ccccc12)NC(=O)[C@H](C)NC(=O)[C@@H](NC(=O)[C@H](Cc1ccccc1)NC(=O)[C@H](CCC(=O)O)NC(=O)[C@H](CCCNC(=N)N)NC(=O)[C@@H](NC(=O)[C@H](C)NC(=O)[C@H](CCC(=O)O)NC(=O)[C@@H]1CCCCNC(=O)CC[C@H](NC(=O)[C@H](CO)NC(=O)[C@H](Cc2ccc(O)cc2)NC(=O)[C@H](CC(=O)O)NC(=O)[C@H](CO)NC(=O)[C@@H](NC(=O)[C@H](Cc2ccccc2)NC(=O)[C@@H](NC(=O)CNC(=O)[C@H](CCC(=O)O)NC(=O)C(C)(C)NC(=O)[C@@H](N)Cc2ccc(O)cc2)[C@@H](C)O)[C@@H](C)O)C(=O)N[C@@H](Cc2ccc(O)cc2)C(=O)N[C@@H](CCSC)C(=O)N[C@@H](CCC(=O)O)C(=O)N1)C(C)C)[C@@H](C)CC)C(C)C)C(N)=O [Compound 084] (H-Y[Aib]EGTFTSDYSEYMEKEAVREFIAWLVKGK(Palmitoyl)-NH2; lactam 12-16) | – | 22.2 | – | 8.8
CCCCCCCCCCCCCCCC(=O)N[C@@H](CCC(=O)NCCCC[C@H](NC(=O)[C@H](CO)NC(=O)[C@@H]1CCCN1C(=O)[C@@H]1CCCN1C(=O)[C@@H]1CCCN1C(=O)[C@H](C)NC(=O)CNC(=O)[C@H](CO)NC(=O)[C@H](CO)NC(=O)[C@@H]1CCCN1C(=O)CNC(=O)CNC(=O)[C@H](CCCCN)NC(=O)[C@@H](NC(=O)[C@H](CC(C)C)NC(=O)[C@H](Cc1c[nH]c2ccccc12)NC(=O)[C@H](C)NC(=O)[C@@H](NC(=O)[C@H](Cc1ccccc1)NC(=O)[C@H](CCC(=O)O)NC(=O)[C@H](CCCNC(=N)N)NC(=O)[C@@H](NC(=O)[C@H](C)NC(=O)[C@H](CCC(=O)O)NC(=O)[C@H](CCCCN)NC(=O)[C@H](CCC(=O)O)NC(=O)[C@H](CCSC)NC(=O)[C@H](Cc1ccc(O)cc1)NC(=O)[C@@H](NC(=O)[C@H](CO)NC(=O)[C@H](Cc1ccc(O)cc1)NC(=O)[C@H](CC(=O)O)NC(=O)[C@H](CO)NC(=O)[C@@H](NC(=O)[C@H](Cc1ccccc1)NC(=O)[C@@H](NC(=O)CNC(=O)[C@H](CCC(=O)O)NC(=O)C(C)(C)NC(=O)[C@@H](N)Cc1ccc(O)cc1)[C@@H](C)O)[C@@H](C)O)[C@@H](C)CC)C(C)C)[C@@H](C)CC)C(C)C)C(N)=O)C(=O)O [Compound 090] | 0.188 nM | 568.6 | 0.009 nM | 1311
